Data as given in ChEMBL document CHEMBL1139287, “Spiro(imidazo[1,2-a]pyrano[2,3-c]pyridine-9-indenes) as inhibitors of gastric acid secretion” (Bioorg Med Chem, 2009).

What was measured:
physchem [1] = settings: octanol/water, pH 7.4
Description: Octanol-water distribution coefficient, log D at pH 7.4 at 25 degC by potentiometric titration method

physchem [2] = assay: physchem
Description: Dissociation constant, pKa of the compound

[3] = Octanol-water distribution coefficient, log D by HPLC; type: physicochemical

| SMILES | logD (physchem [1]) | pKa (physchem [2]) | logD [3] |
| --- | --- | --- | --- |
| Cc1cccc2c1CCC21CCc2c(C(=O)N(C)C)cn3c(C)c(C)nc3c2O1 (stereo not given) | 3.42 | 6.87 | – |
| Cc1nc2c3c(c(C(=O)N(C)C)cn2c1C)CCC1(CCc2cc(F)ccc21)O3 (stereo not given) | – | – | 3 |
| Cc1nc2c3c(c(C(=O)N(C)C)cn2c1C)CCC1(Cc2ccccc2C1)O3 | – | 6.84 | 2.9 |
| Cc1nc2c3c(c(C(=O)Nc4ccccc4)cn2c1C)CCC1(CCc2ccccc21)O3 (stereo not given) | 4.7 | 6.76 | – |
| CON(C)C(=O)c1cn2c(C)c(C)nc2c2c1CCC1(CCc3ccccc31)O2 (stereo not given) | 3.15 | 6.63 | – |
| Cc1nc2c3c(c(C(=O)N(C)C)cn2c1C)CCC1(CCc2ccccc21)O3 (racemic) | 2.91 | 6.84 | – |

Now from value to molecule:

| logD (physchem [1]) | pKa (physchem [2]) | logD [3] | SMILES |
| --- | --- | --- | --- |
| 3.29 | 6.8 | – | CNC(=O)c1cn2c(C)c(C)nc2c2c1CCC1(CCc3ccccc31)O2 (stereo not given) |
| 3.64 | 6.76 | – | Cc1nc2c3c(c(C(=O)NC4CC4)cn2c1C)CCC1(CCc2ccccc21)O3 (stereo not given) |
| 3.19 | 6.81 | – | Cc1nc2c3c(c(C(=O)N4CCC4)cn2c1C)CCC1(CCc2ccccc21)O3 (stereo not given) |
| 3.36 | 6.88 | – | Cc1nc2c3c(c(C(=O)N4CCCC4)cn2c1C)CCC1(CCc2ccccc21)O3 (stereo not given) |
| 3.87 | 6.81 | – | Cc1nc2c3c(c(C(=O)N4CCCCC4)cn2c1C)CCC1(CCc2ccccc21)O3 (stereo not given) |
| 2.85 | 6.74 | – | Cc1nc2c3c(c(C(=O)N4CCOCC4)cn2c1C)CCC1(CCc2ccccc21)O3 (stereo not given) |
| 3.57 | 6.55 | – | Cc1nc2c3c(c(C(=O)N4CC(F)(F)C4)cn2c1C)CCC1(CCc2ccccc21)O3 (stereo not given) |
